A short description of the data set: Waters ACQUITY UPLC BEH C18, 100 × 2.1 mm, 1.7 µm, 40 °C, 0.28 mL/min, estimated dead time 0.63 min; A: water + 6.5 mM ammonium hydroxide; B: methanol + 6.5 mM ammonium hydroxide; gradient (min/%B) 0/0.5 4/70 4.5/98 5.4/98. The conditions noted are these: stereoisomer not certain.

The structures appear in SMILES notation.

Data on 56 molecules can be found in the RepoRT retention time repository (doi:10.1038/s41586-021-03707-9).

As to `Oc1ccccc1O`, the LC retention time is 2.93 min.
Turning to `NC(=O)c1ncn(C2OC(CO)C(O)C2O)n1` (stereo unspecified), the LC retention time is 0.858 min.
For `CC=CC=CC(=O)O`, the LC retention time is 2.28 min.
`CC(=O)OCc1ccccc1`: the LC retention time was 2.78 min.
Consider `CC1=C(CCC(=O)O)c2cc3nc(cc4[nH]c(cc5[nH]c(cc1n2)c(C)c5CCC(=O)O)c(CCC(=O)O)c4C)C(CCC(=O)O)=C3C`, for which the LC retention time was 3.64 min.
With `Cc1cn(C2CC(O)C(COP(=O)(O)OP(=O)(O)OC3OC(CO)C(O)C(O)C3O)O2)c(=O)[nH]c1=O` (stereo unspecified), the LC retention time is 0.923 min.
With `O=C(O)Cc1ccc(O)c(O)c1`, the LC retention time is 1.1 min.
With `O=C(O)c1cc(O)ccc1O` the figure was 1.63 min; with `O=C(O)CNC(=O)c1ccccc1O`, 2.48 min.
As for `NC1C(O)OC(CO)C(O)C1O` (stereo unspecified), the LC retention time is 0.802 min.
With `CC(=O)CCC(=O)O` the figure was 0.87 min; with `CCCCC(=O)N(Cc1ccc(-c2ccccc2-c2nn[nH]n2)cc1)C(C(=O)O)C(C)C` (stereo unspecified), 4.48 min.
With `COC1OC(CO)C(O)C(O)C1O` (stereo unspecified) the figure was 0.979 min; with `Nc1ncnc2c1ncn2C1OC(COP(=O)(O)OP(=O)(O)OC2OC(CO)C(O)C(O)C2O)C(O)C1O` (stereo unspecified), 0.917 min; with `COc1cc(CC(=O)O)ccc1OS(=O)(=O)O`, 0.848 min.
With `NCC1CCC(C(=O)O)CC1` (stereo unspecified) the figure was 0.843 min.
As to `COC(=O)Cc1ccc(O)cc1`, the LC retention time was 4.14 min.
The result for `Cn1cncc1CC(N)C(=O)O` (stereo unspecified) reads 0.969 min.
Consider `CN=C(NC#N)NCCSCc1nc[nH]c1C`, for which the LC retention time was 3.63 min.
Turning to `O=C(O)CCCCC1CCSS1` (stereo unspecified), the LC retention time is 3.95 min.
Regarding `O=C(O)c1cc(O)cc(O)c1`, the LC retention time is 0.832 min.
With `CC(C)(COP(=O)(O)OP(=O)(O)OCC1OC(n2cnc3c(N)ncnc32)C(O)C1OP(=O)(O)O)C(O)C(=O)NCCC(=O)NCCS` (stereo unspecified), the LC retention time is 0.853 min.
As to `OCC1OC(OCC2OC(OCC3OC(OC4(CO)OC(CO)C(O)C4O)C(O)C(O)C3O)C(O)C(O)C2O)C(O)C(O)C1O` (stereo unspecified), the LC retention time is 0.928 min.
Regarding `NC(Cc1cnc[nH]1)C(=O)O` (stereo unspecified), the LC retention time was 0.849 min.
With `NC(CS)C(=O)NCC(=O)O` (stereo unspecified) the figure was 0.946 min; with `CCC(C)C(O)C(=O)O` (stereo unspecified), 1.97 min; with `CCCC(N)C(=O)O` (stereo unspecified), 1.02 min.
Consider `CCC(CO)C(=O)O` (stereo unspecified), for which the LC retention time was 0.857 min.
In the case of `O=c1[nH]cc(CO)c(=O)[nH]1`, the LC retention time is 0.855 min.
For the molecule `Cc1cccc(O)c1O`, the LC retention time is 4 min.
As for `NC(=O)C1=CN(C2OC(COP(=O)(O)OP(=O)(O)OCC3OC(n4cnc5c(N)ncnc54)C(O)C3O)C(O)C2O)C=CC1` (stereo unspecified), the LC retention time is 0.901 min.
With `O=C(CCc1ccc(O)cc1)c1c(O)cc(O)cc1OC1OC(CO)C(O)C(O)C1O` (stereo unspecified) the figure was 3.5 min.
With `CC=CC(=O)O` the figure was 0.869 min; with `O=C(O)Cc1ccccc1O`, 2.46 min; with `O=C(O)CNC(=O)c1cccc(O)c1`, 1.91 min.
On to `CNC(=C[N+](=O)[O-])NCCSCc1csc(CN(C)C)n1`, for which the LC retention time is 3.86 min.
For the molecule `O=C(O)CCc1ccc(O)cc1`, the LC retention time was 2.5 min.
For `NCC(N)C(=O)O` (stereo unspecified), the LC retention time was 0.768 min.
Regarding `CC(C)C(N)C(=O)O` (stereo unspecified), the LC retention time is 1 min.
Consider `CNCC(=O)O`, for which the LC retention time is 0.778 min.
In the case of `[2H]C([2H])([2H])C([2H])([2H])C([2H])([2H])C([2H])([2H])C([2H])([2H])C([2H])([2H])C([2H])([2H])C(=O)O`, the LC retention time is 4.67 min.
In the case of `CC(C)Cc1ccc(C(C)C(=O)O)cc1` (stereo unspecified), the LC retention time was 5.27 min.
As for `CC(=O)NC(CCC(N)=O)C(=O)O` (stereo unspecified), the LC retention time is 0.835 min.
On to `CCC(C(=O)O)c1ccccc1` (stereo unspecified), for which the LC retention time is 3.74 min.
Consider `NCCC(=O)NC(Cc1cnc[nH]1)C(=O)O` (stereo unspecified), for which the LC retention time is 0.9 min.
As for `Cc1ccc(O)c([N+](=O)[O-])c1`, the LC retention time is 4.33 min.
Consider `O=c1[nH]c(=O)c2[nH]cnc2[nH]1`, for which the LC retention time is 0.977 min.
The result for `CCC(O)C(=O)O` (stereo unspecified) reads 0.842 min; that for `OCc1cccc(O)c1`, 2.93 min; that for `O=C(O)C(O)c1cccc(O)c1` (stereo unspecified), 0.848 min.
Consider `O=CC(O)C1OC(=O)C(O)C1O` (stereo unspecified), for which the LC retention time is 0.884 min.
Take `COc1cc(C=O)ccc1O`: the LC retention time is 2.51 min.
Take `NC(CCO)C(=O)O` (stereo unspecified): the LC retention time is 0.762 min.
The result for `Cc1ccc(OC2OC(C(=O)O)C(O)C(O)C2O)cc1` (stereo unspecified) reads 2.77 min; that for `O=C(O)c1ccc(O)c(O)c1`, 0.797 min.
On to `COc1ccc(CC(=O)O)cc1OC`, for which the LC retention time is 2.66 min.
